Reference: patent publication US5115096A, “Amphiregulin: a bifunctional growth modulating glycoprotein” (Oncogen, priority 1989, dated 1992)
Read-outs that look alike come from different tables or passages of the source.

What was measured:
Type in all cases: cell-based, human
[1] = tested on: AR RNA in MCF-7 (HTB 22) cells; experiment: Northern blot of AR RNA in MCF-7 cells
Description: c-AMP is another regulatory molecule which exerts diverse effects on cells, primarily through cAMP-dependent protein kinase A. Intracellular levels of cAMP are regulated by a combination of receptor-mediated activation and adenylate cyclase inhibition. Some studies indicate that TPA and cAMP induced gene expression may converge as a common pathway. To study the regulation of AR gene expression, we chose to look at the effect of various activators or inhibitors of both these regulatory pathways on the production of AR specific RNA in MCF-7 cells.
Forskolin is a drug which activates adenylate cyclase, resulting in increased intracellular cAMP.
Ten or twenty μg of total RNA was electrophoresed on 1.2% agarose/formaldehyde gels for Northern analysis. The agarose/formaldehyde gels were prepared in 40 mM N-morpholinopropanesulfonic acid (MOPS), pH 7.0/1 mM EDTA/10 mM sodium acetate/2/2 M deionized formaldehyde (pH5.6) in an IBI VCV gel apparatus with frosted plates. RNA was denatured in the same buffer with 50% formamide at 65° C., and run in 1×MOPS, at 20-30 mA for 3-5 hr. […] Bands were scored as (+) if clearly visible after overnight exposure, (+/-) if visible after 3 day exposure, and (++) if detectable after 6 hr. […]

[2] = tested on: AR RNA in BT-474 (HTB 20) cells; experiment: Northern blot of AR RNA, tumor cell line panel; parameters: key: +: clearly visible after overnight exposure; +/-: visible after 3 day exposure; ++: detectable after 6 hr; settings: 24 hour induction with TPA
Description: (§1) Ten or twenty μg of total RNA was electrophoresed on 1.2% agarose/formaldehyde gels for Northern analysis. The agarose/formaldehyde gels were prepared in 40 mM N-morpholinopropanesulfonic acid (MOPS), pH 7.0/1 mM EDTA/10 mM sodium acetate/2/2 M deionized formaldehyde (pH5.6) in an IBI VCV gel apparatus with frosted plates. RNA was denatured in the same buffer with 50% formamide at 65° C., and run in 1×MOPS, at 20-30 mA for 3-5 hr. The gel was rinsed in 10×SSC for 30 min and transferred to Hybond-N membranes (Amersham), UV-crosslinked (1200 μJoules), prehybridized and hybridized in 5×SSPE (1×SSPE is 0.18 M NaCl/10 mM sodium phosphate, pH 7.7, 0.1 mM EDTA), 5×Denhardt's, 0.5% SDS, and 20 μg/ml denatured salmon sperm DNA as carrier. Hybridizations were carried out at 42° C. for 16 hr with 2×10^6 cpm/ml of the ^ 32 P-ARBP1. Blots were washed several times in 2×SSC with 0.1% SDS at room temperature followed by 1×SSC/0.1% SDS, 65° C., and exposed on Kodak X-OMAT with two Dupont Lightning Plus intensifying screens at -70° C. Bands were scored as (+) if clearly visible after overnight exposure, (+/-) if visible after 3 day exposure, and (++) if detectable after 6 hr.
(§2) A panel of tumor cell lines was tested for AR RNA levels both before and after 24 hour induction with TPA. With but a few exceptions, the only sources of detectable AR RNA were in human breast cancer lines treated with TPA.

[3] = tested on: AR RNA in BT-476 cells; experiment: Northern blot of AR RNA, tumor cell line panel; parameters: key: +: clearly visible after overnight exposure; +/-: visible after 3 day exposure; ++: detectable after 6 hr; settings: BT-476, 24 hour induction with TPA
Description: as §1, §2

[4] = tested on: AR RNA in HBL-100 (HTB 124) cells; experiment: Northern blot of AR RNA, tumor cell line panel; parameters: key: +: clearly visible after overnight exposure; +/-: visible after 3 day exposure; ++: detectable after 6 hr; settings: 24 hour induction with TPA
Description: as §1, §2

[5] = tested on: AR RNA in HEPM (CRL 1486) cells; experiment: Northern blot of AR RNA, tumor cell line panel; parameters: key: +: clearly visible after overnight exposure; +/-: visible after 3 day exposure; ++: detectable after 6 hr; settings: 24 hour induction with TPA
Description: as §1, §2

[6] = tested on: AR RNA in HUF foreskin fibroblast cells; experiment: Northern blot of AR RNA, tumor cell line panel; parameters: key: +: clearly visible after overnight exposure; +/-: visible after 3 day exposure; ++: detectable after 6 hr; settings: 24 hour induction with TPA
Description: as §1, §2

[7] = tested on: AR RNA in JEG-3 (HTB 36) cells; experiment: Northern blot of AR RNA, tumor cell line panel; parameters: key: +: clearly visible after overnight exposure; +/-: visible after 3 day exposure; ++: detectable after 6 hr; settings: 24 hour induction with TPA
Description: as §1, §2

[8] = tested on: AR RNA in MDA-MB-157 (HTB 24) cells; experiment: Northern blot of AR RNA, tumor cell line panel; parameters: key: +: clearly visible after overnight exposure; +/-: visible after 3 day exposure; ++: detectable after 6 hr; settings: 24 hour induction with TPA
Description: as §1, §2

[9] = tested on: AR RNA in MDA-MB-361 (HTB 27) cells; experiment: Northern blot of AR RNA, tumor cell line panel; parameters: key: +: clearly visible after overnight exposure; +/-: visible after 3 day exposure; ++: detectable after 6 hr; settings: 24 hour induction with TPA
Description: as §1, §2

[10] = tested on: AR RNA in SK-BR-3 (HTB 30) cells; experiment: Northern blot of AR RNA, tumor cell line panel; parameters: key: +: clearly visible after overnight exposure; +/-: visible after 3 day exposure; ++: detectable after 6 hr; settings: 24 hour induction with TPA
Description: as §1, §2

[11] = tested on: AR 5' flanking region driving CAT gene in MCF-7 cells; experiment: CAT assay, AR 5' regulatory region/CAT constructs transiently introduced into MCF-7 cells
Description: MCF-7 cells were grown as described in Section 6.2.1 supra. For each assay, 1-2×10^6 cells were plated in a 100 mm dish in 10 ml media, and 24 hours later, 20 μg calcium phosphate precipitated supercoiled plasmid DNA was added to the cells (Southern and Berg, 1982). The cells were rinsed with fresh media 4 hours after transfection and subjected to a 25% glycerol shock for 90 seconds. Cells were again rinsed and overlayed with 20 ml fresh media containing 0 or 100ng/ml TPA. Cells were washed and harvested 40 hours after glycerol shock and lysed by sonication in 100 μl 1 0.25 M Tris-HCl (pH 7.8). CAT activity was assayed essentially as detailed by Gorman et al. (1982). Cell extract (3-50 μl) was added to […] ^14 C-chloramphenicol (NEN), in a 150 μl reaction volume of 0.5 M Tris (pH 7.8), 0.5 mM AcetylCoA. The reactions were incubated at 37° C. for 2 hours, extracted with 1 ml ethyl acetate and developed on silica gel TLC plates with CHCl3 :1-butanol (95:5). TLC plates were dried and autoradiographed. The acetylated and unacetylated ^14 C-chloramphenicol was quantitated by counting excised spots in Optifluor. Units of CAT enzymatic activity were calculated as μg chloramphenicol acetylated per hour per μg protein in the cell extract.
Primer extension was performed on MCF-7 RNA with 2 separate oligonucleotides from exon 1. […]

[12] = tested on: transcription of AR in MCF-7 cells; experiment: Nuclear run-off, transcription of AR; settings: in response to TPA
[13] = tested on: MCF-7 cells; experiment: Morphology and cell number of MCF-7 cells; settings: MCF-7 cells compared to untreated cells
Description: TPA induces dramatic morphological changes in a dose-dependent manner. Following TPA treatment, MCF-7 cells lose their well defined morphology, become rounded, and spread out.

| Compound | time after treatment at which increase in the 1.4 kb AR RNA species was seen ([1]; MCF-7 cells treated with TPA for 0-48 hours) [h] | AR RNA Level, TPA INDUCED [2] | AR RNA Level, TPA INDUCED [3] | AR RNA Level, TPA INDUCED [4] | AR RNA Level, TPA INDUCED [5] | AR RNA Level, TPA INDUCED [6] | AR RNA Level, TPA INDUCED [7] | AR RNA Level, TPA INDUCED [8] | AR RNA Level, TPA INDUCED [9] | AR RNA Level, TPA INDUCED [10] | fold induction at 0.1 µg/mL ([11]; MCF7, 40 h, pXARE1CAT (-648 to +40) in MCF-7 cells, addition of TPA, read-out: stimulation of CAT activity) | fold induction at 0.1 µg/mL ([11]; MCF7, deletion mutants E1a-E1h in MCF-7 cells, 40 hour treatment with 100 ng/ml TPA, read-out: enhanced expression of 5' CAT deletion constructs) | increased transcription of AR [12] | effect on cell number [13] | AR mRNA ([1]; MCF-7 cells, 25 uM for 4 hours) |
| --- | --- | --- | --- | --- | --- | --- | --- | --- | --- | --- | --- | --- | --- | --- | --- |
| CCCCCCCCCCCCCC(=O)O[C@@H]1[C@@H](C)[C@@]2(O)[C@@H](C=C(CO)C[C@]3(O)C(=O)C(C)=C[C@@H]23)[C@@H]2C(C)(C)[C@]12OC(C)=O [TPA, 12-0-tetradecanoyl-phorbol-13-acetate] | ≤ 1 | + | + | + | +/- | +/- | +/- | ++ | ++ | + | 6 to 7 | 3.5 to 7 | 3-5 fold | dose-dependent reduction in cell number | – |
| C=C[C@@]1(C)CC(=O)[C@]2(O)[C@@]3(C)[C@@H](O)CCC(C)(C)[C@@H]3[C@H](O)[C@H](OC(C)=O)[C@@]2(C)O1 [Forskolin] | – | – | – | – | – | – | – | – | – | – | – | – | – | – | marked stimulation |
